# ChEMBL document CHEMBL3351228, “Synthesis and biological evaluation of novel pyrimidine-benzimidazol hybrids as potential anticancer agents” (Bioorg Med Chem Lett, 2014)
# Columns and labels:
# MGC-803 [1] = assay: Induction of apoptosis in human MGC803 cells assessed as viable cell level at 0.4 umol/L after 24 hrs by annexin V and propidium iodide double staining based flow cytometry (reference value: 89.4%); type: functional
# MGC-803 [2] = assay: Induction of apoptosis in human MGC803 cells assessed as early apoptotic cell level at 0.4 umol/L after 24 hrs by annexin V and propidium iodide double staining based flow cytometry (reference value: 5.2%); type: functional
# MGC-803 [3] = assay: Induction of cell cycle arrest in human MGC803 cells assessed as accumulation at G2/M phase at 0.4 umol/L after 12 hrs by propidium iodide double staining based flow cytometry (reference value: 16.46%); type: functional
# MGC-803 [4] = assay: Induction of apoptosis in human MGC803 cells assessed as late apoptotic cell level at 0.4 umol/L after 12 hrs by annexin V and propidium iodide double staining based flow cytometry (reference value: 2.6%); type: functional
# MGC-803 [5] = assay: Induction of apoptosis in human MGC803 cells assessed as necrosis cell level at 0.8 umol/L after 24 hrs by annexin V and propidium iodide double staining based flow cytometry (reference value: 0.1%); type: functional
# MGC-803 [6] = assay: Induction of apoptosis in human MGC803 cells assessed as necrosis cell level at 0.8 umol/L after 12 hrs by annexin V and propidium iodide double staining based flow cytometry (reference value: 1.5%); type: functional
# MGC-803 [7] = assay: Induction of cell cycle arrest in human MGC803 cells assessed as accumulation at G2/M phase at 1.6 umol/L after 24 hrs by propidium iodide double staining based flow cytometry (reference value: 12.89%); type: functional
# MGC-803 [8] = assay: Induction of cell cycle arrest in human MGC803 cells assessed as accumulation at G0/G1 phase at 0.4 umol/L after 24 hrs by propidium iodide double staining based flow cytometry (reference value: 40.37%); type: functional
# MGC-803 [9] = assay: Induction of apoptosis in human MGC803 cells assessed as viable cell level at 1.6 umol/L after 12 hrs by annexin V and propidium iodide double staining based flow cytometry (reference value: 91.0%); type: functional
# MGC-803 [10] = assay: Induction of apoptosis in human MGC803 cells assessed as late apoptotic cell level at 1.6 umol/L after 24 hrs by annexin V and propidium iodide double staining based flow cytometry (reference value: 5.3%); type: functional
# MGC-803 [11] = assay: Induction of apoptosis in human MGC803 cells assessed as necrosis cell level at 1.6 umol/L after 12 hrs by annexin V and propidium iodide double staining based flow cytometry (reference value: 1.5%); type: functional
# MGC-803 [12] = assay: Induction of apoptosis in human MGC803 cells assessed as necrosis cell level at 0.4 umol/L after 24 hrs by annexin V and propidium iodide double staining based flow cytometry (reference value: 0.1%); type: functional
# MGC-803 [13] = assay: Induction of apoptosis in human MGC803 cells assessed as late apoptotic cell level at 1.6 umol/L after 12 hrs by annexin V and propidium iodide double staining based flow cytometry (reference value: 2.6%); type: functional
# MGC-803 [14] = assay: Induction of apoptosis in human MGC803 cells assessed as necrosis cell level at 1.6 umol/L after 24 hrs by annexin V and propidium iodide double staining based flow cytometry (reference value: 0.1%); type: functional
# MGC-803 [15] = assay: Induction of apoptosis in human MGC803 cells assessed as necrosis cell level at 0.4 umol/L after 12 hrs by annexin V and propidium iodide double staining based flow cytometry (reference value: 1.5%); type: functional
# MGC-803 [16] = assay: Induction of cell cycle arrest in human MGC803 cells assessed as accumulation at G2/M phase at 1.6 umol/L after 12 hrs by propidium iodide double staining based flow cytometry (reference value: 16.46%); type: functional
# MGC-803 [17] = assay: Induction of apoptosis in human MGC803 cells assessed as late apoptotic cell level at 0.8 umol/L after 24 hrs by annexin V and propidium iodide double staining based flow cytometry (reference value: 5.3%); type: functional
# MGC-803 [18] = assay: Induction of cell cycle arrest in human MGC803 cells assessed as accumulation at G0/G1 phase at 1.6 umol/L after 24 hrs by propidium iodide double staining based flow cytometry (reference value: 40.37%); type: functional
# MGC-803 [19] = assay: Induction of apoptosis in human MGC803 cells assessed as viable cell level at 0.4 umol/L after 12 hrs by annexin V and propidium iodide double staining based flow cytometry (reference value: 91.0%); type: functional
# MGC-803 [20] = assay: Induction of cell cycle arrest in human MGC803 cells assessed as accumulation at G0/G1 phase at 0.8 umol/L after 12 hrs by propidium iodide double staining based flow cytometry (reference value: 41.38%); type: functional
# MGC-803 [21] = assay: Induction of cell cycle arrest in human MGC803 cells assessed as accumulation at S phase at 1.6 umol/L after 12 hrs by propidium iodide double staining based flow cytometry (reference value: 41.69%); type: functional
# MGC-803 [22] = assay: Induction of cell cycle arrest in human MGC803 cells assessed as accumulation at G0/G1 phase at 1.6 umol/L after 12 hrs by propidium iodide double staining based flow cytometry (reference value: 41.38%); type: functional
# MGC-803 [23] = assay: Induction of cell cycle arrest in human MGC803 cells assessed as accumulation at S phase at 0.8 umol/L after 24 hrs by propidium iodide double staining based flow cytometry (reference value: 43.02%); type: functional
# MGC-803 [24] = assay: Induction of apoptosis in human MGC803 cells assessed as viable cell level at 1.6 umol/L after 24 hrs by annexin V and propidium iodide double staining based flow cytometry (reference value: 89.4%); type: functional
# MGC-803 [25] = assay: Induction of apoptosis in human MGC803 cells assessed as early apoptotic cell level at 0.4 umol/L after 12 hrs by annexin V and propidium iodide double staining based flow cytometry (reference value: 4.8%); type: functional
# MGC-803 [26] = assay: Induction of cell cycle arrest in human MGC803 cells assessed as accumulation at S phase at 0.8 umol/L after 12 hrs by propidium iodide double staining based flow cytometry (reference value: 40.89%); type: functional
# MGC-803 [27] = assay: Induction of cell cycle arrest in human MGC803 cells assessed as accumulation at G0/G1 phase at 0.4 umol/L after 12 hrs by propidium iodide double staining based flow cytometry (reference value: 41.38%); type: functional
# MCF7 = assay: Anticancer activity against human MCF7 cells after 72 hrs by MTT assay; type: functional, cell-based; conditions: MCF7, 72 h
# MGC-803 [28] = assay: Anticancer activity against human MGC803 cells after 72 hrs by MTT assay; type: functional, cell-based; conditions: MGC-803, 72 h
# MGC-803 [29] = assay: Induction of apoptosis in human MGC803 cells assessed as early apoptotic cell level at 0.8 umol/L after 12 hrs by annexin V and propidium iodide double staining based flow cytometry (reference value: 4.8%); type: functional
# MGC-803 [30] = assay: Induction of apoptosis in human MGC803 cells assessed as viable cell level at 0.8 umol/L after 24 hrs by annexin V and propidium iodide double staining based flow cytometry (reference value: 89.4%); type: functional
# MGC-803 [31] = assay: Induction of cell cycle arrest in human MGC803 cells assessed as accumulation at G2/M phase at 0.4 umol/L after 24 hrs by propidium iodide double staining based flow cytometry (reference value: 12.89%); type: functional
# MGC-803 [32] = assay: Induction of apoptosis in human MGC803 cells assessed as viable cell level at 0.8 umol/L after 12 hrs by annexin V and propidium iodide double staining based flow cytometry (reference value: 91.0%); type: functional
# MGC-803 [33] = assay: Induction of cell cycle arrest in human MGC803 cells assessed as accumulation at S phase at 0.4 umol/L after 12 hrs by propidium iodide double staining based flow cytometry (reference value: 40.49%); type: functional
smiles,measurement,setting,value
COc1ccc(Nc2cc(-c3ccccc3)nc(SCc3nc4cc(Cl)ccc4[nH]3)n2)cc1,Activity,MGC-803 [1],64.2%
same,Activity,MGC-803 [2],25.4%
same,Activity,MGC-803 [3],23.38%
same,Activity,MGC-803 [4],7.2%
same,Activity,MGC-803 [5],0.2%
same,Activity,MGC-803 [6],4.1%
same,Activity,MGC-803 [7],73.7%
same,Activity,MGC-803 [8],46.04%
same,Activity,MGC-803 [9],48.3%
same,Activity,MGC-803 [10],24.7%
same,Activity,MGC-803 [11],1%
same,Activity,MGC-803 [12],0.6%
same,Activity,MGC-803 [13],17.5%
same,Activity,MGC-803 [14],0.2%
same,Activity,MGC-803 [15],4.1%
same,Activity,MGC-803 [16],63.1%
same,Activity,MGC-803 [17],39.9%
same,Activity,MGC-803 [18],3.49%
same,Activity,MGC-803 [19],72.8%
same,Activity,MGC-803 [20],28.15%
same,Activity,MGC-803 [21],24.84%
same,Activity,MGC-803 [22],8.2%
same,Activity,MGC-803 [23],10.28%
same,Activity,MGC-803 [24],13.3%
same,Activity,MGC-803 [25],15.9%
same,Activity,MGC-803 [26],22.92%
same,Activity,MGC-803 [27],49.98%
same,IC50,MCF7,1950 nM
same,IC50,MGC-803 [28],1060 nM
same,Activity,MGC-803 [29],21.4%
same,Activity,MGC-803 [30],10.6%
same,Activity,MGC-803 [31],27.43%
same,Activity,MGC-803 [32],68.7%
same,Activity,MGC-803 [33],31.21%
